Measured values taken from PubChem BioAssay (NCI).
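Abbreviation: GI50, concentration required for 50% inhibition of growth. At the TGI there is no net growth.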

Experiments:
Experiment in all cases: NCI anticancer screen, dose series, 384-well format
[1] = tested on: MALME-3M melanoma
[2] = tested on: OVCAR-3 ovarian
[3] = tested on: KM12 colon
[4] = tested on: CAKI-1 renal
[5] = tested on: 786-0 renal
[6] = tested on: MDA-MB-435 melanoma
[7] = tested on: MDA-MB-231 breast
[8] = tested on: PC-3 prostate
[9] = tested on: MCF7 breast
[10] = tested on: LOX IMVI melanoma
[11] = tested on: HS 578T breast
[12] = tested on: UO-31 renal
[13] = tested on: MOLT-4 leukemia

Structure (SMILES)	GI50 [1] [µM]	TGI [1] [µM]	GI50 [2] [µM]	TGI [2] [µM]	GI50 [3] [µM]	TGI [3] [µM]	GI50 [4] [µM]	TGI [4] [µM]	GI50 [5] [µM]	TGI [5] [µM]	GI50 [6] [µM]	TGI [6] [µM]	GI50 [7] [µM]	TGI [7] [µM]	GI50 [8] [µM]	TGI [8] [µM]	GI50 [9] [µM]	TGI [9] [µM]	GI50 [10] [µM]	TGI [10] [µM]	also measured
C[C@@H](Nc1nc(N[C@H](C)C(F)(F)F)nc(-c2cccc(Cl)n2)n1)C(F)(F)F	> 66	> 100	28.8	> 100	> 91.7	> 100	33.6	> 73.8	33.2	> 76.3	> 77.9	> 100	27.9	> 83.3	> 51.1	> 80.9	14.5	> 100	> 100	> 100	GI50 [11]: 21.1 µM; TGI [11]: 63.2 µM; GI50 [12]: > 100 µM; TGI [12]: > 100 µM; GI50 [13]: > 100 µM; TGI [13]: > 100 µM
Cc1cc(F)c(C(=O)Nc2cccc(-c3nncn3C(C)C)n2)cc1-n1cnc(C2CC2)c1	15.2	35	14.7	41.1	15.6	30.6	12.6	31.4	15	40.4	13.2	30	15.3	> 85.9	15.5	30.2	12.3	25.9	13.7	28.9	GI50 [11]: 8.3 µM; TGI [11]: 35.2 µM; GI50 [12]: 10.4 µM; TGI [12]: 23.7 µM; GI50 [13]: 5.69 µM; TGI [13]: 18.1 µM
